Measured values published in patent publication US9938261B2, “Heterocyclic compounds and methods of use thereof” (AMBIT BIOSCIENCES CORPORATION, priority 2011, dated 2018).
Structures can show the parent of a compound that is named as a salt. Where two headings read alike, the source gives them in different places.

Experiments:
[1] = test system: M-NFS-60 cells; experiment: M-NFS-60 cell proliferation assay (Alamar Blue); type: cell-based, mouse; details: read-out: CSF1R M-NFS-60 CTB:IC50
Method in brief: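 Mouse M-NFS-60 cells growing on 20 ng/mL M-CSF in RPMI/10% FBS were exposed to compounds (9 half-log concentrations, 0.5% DMSO) for 72 h at 37 °C. Viability read by Alamar Blue fluorescence (ex 560/em 590 nm, 3 h). IC50 = 50% proliferation inhibition versus control, mean of duplicates.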

[2] = target: kinase panel containing either 386 or 392 distinct kinases; experiment: Kinase selectivity score S10 from competition binding panel
Method in brief: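 Compounds at 10 μM competed against immobilised affinity ligands for T7 phage-fused or HEK-293-expressed DNA-tagged kinases, 1 h at room temperature; bound kinase eluted and quantified by qPCR. S10 = fraction of distinct non-mutant kinases with percent of DMSO control below 10.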

[3] = target: CSF1R (Homo sapiens, UniProt P07333); experiment: Competition binding assay, CSF1R Kd; set-up: made in house
CSF1R, sequence (P07333 20-972): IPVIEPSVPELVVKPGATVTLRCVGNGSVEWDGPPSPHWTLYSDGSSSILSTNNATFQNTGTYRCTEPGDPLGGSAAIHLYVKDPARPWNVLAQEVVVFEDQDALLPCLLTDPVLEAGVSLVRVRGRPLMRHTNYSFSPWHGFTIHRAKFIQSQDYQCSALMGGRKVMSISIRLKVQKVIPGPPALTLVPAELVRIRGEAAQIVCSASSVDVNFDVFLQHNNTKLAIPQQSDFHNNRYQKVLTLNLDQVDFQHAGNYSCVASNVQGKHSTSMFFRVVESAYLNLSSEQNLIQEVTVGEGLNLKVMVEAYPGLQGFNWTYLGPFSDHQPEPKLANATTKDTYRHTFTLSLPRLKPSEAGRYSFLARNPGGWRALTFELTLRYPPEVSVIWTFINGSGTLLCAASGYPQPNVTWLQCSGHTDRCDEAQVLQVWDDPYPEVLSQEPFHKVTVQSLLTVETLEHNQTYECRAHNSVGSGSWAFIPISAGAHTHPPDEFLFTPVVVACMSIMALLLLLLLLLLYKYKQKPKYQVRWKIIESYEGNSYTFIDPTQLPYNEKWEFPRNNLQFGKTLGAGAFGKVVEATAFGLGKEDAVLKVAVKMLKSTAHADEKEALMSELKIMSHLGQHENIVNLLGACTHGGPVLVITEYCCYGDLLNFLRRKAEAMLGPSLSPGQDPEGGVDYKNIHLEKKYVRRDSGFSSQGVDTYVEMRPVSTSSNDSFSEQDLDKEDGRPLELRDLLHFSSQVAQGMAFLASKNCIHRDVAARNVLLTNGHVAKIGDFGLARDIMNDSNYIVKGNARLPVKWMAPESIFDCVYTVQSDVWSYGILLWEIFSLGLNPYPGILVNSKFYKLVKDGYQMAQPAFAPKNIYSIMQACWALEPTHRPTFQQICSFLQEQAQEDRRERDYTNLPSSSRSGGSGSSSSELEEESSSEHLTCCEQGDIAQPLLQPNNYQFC
Method in brief: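 Compound displacement of kinase from bead-immobilized ligand is measured by qPCR after 1 h equilibration at room temperature. Kinases are T7 phage fusions or DNA-tagged HEK-293 products.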

[4] = Mus musculus, M-NFS-60 cell proliferation
[5] = 10 μM, panel of 386 or 392 distinct kinases
[6] = 72 hours incubation, M-CSF 20 ng/mL
[7] = compounds at 10 μM, 386 or 392 distinct kinases

Row | Molecule | IC50 [1, 4] [nM] | Kinase specificity S(10) [2, 5] | Kd ([3]; competition binding) [nM] | IC50 [1, 6] [nM] | Kinase specificity S(10) [2, 7] | Kd [3] [nM]
1 | C=Cc1cc(F)c2c(c1)ncn2Cc1ccc2nc(N[C@@H]3CCCC[C@H]3O)sc2c1 [Example 207, (1R,2R)-2-((6-((7-fluoro-5-vinyl-1H-benzo[d]imidazol-1-yl)methyl)benzo[d]thiazol-2-yl)amino)cyclohexanol] | ≤ 50 | B (0.01<B≤0.02) | 5 to 20 |  |  | 
2 | O[C@@H]1CCCC[C@H]1Nc1nc2ccc(Cn3cnc4cc(C5=CCOCC5)cc(F)c43)cc2s1 [Example 208, (1R,2R)-2-((6-((5-(3,6-dihydro-2H-pyran-4-yl)-7-fluoro-1H-benzo[d]imidazol-1-yl)methyl)benzo[d]thiazol-2-yl)amino)cyclohexanol] | ≤ 50 | B (0.01<B≤0.02) | ≤ 5 |  |  | 
3 | O[C@@H]1CCCC[C@H]1Nc1nc2ccc(Cn3cnc4cc(N5CCOCC5)ccc43)cc2s1 [Example 209, (1R,2R)-2-((6-((5-morpholino-1H-benzo[d]imidazol-1-yl)methyl)benzo[d]thiazol-2-yl)amino)cyclohexanol] | 50 to 400 | A (A≤0.01) | 5 to 20 |  |  | 
4 | O=C1CCCCN1c1ccc2c(c1)ncn2Cc1ccc2nc(N[C@@H]3CCCC[C@H]3O)sc2c1 [Example 210, 1-(1-((2-(((1R,2R)-2-hydroxycyclohexyl)amino)benzo[d]thiazol-6-yl)methyl)-1H-benzo[d]imidazol-5-yl)piperidin-2-one] | > 1500 | A (A≤0.01) | 20 to 50 |  |  | 
5 | O[C@@H]1CCCC[C@H]1Nc1nc2ccc(Cn3cnc4cc(-c5cc[nH]n5)ccc43)cc2s1 [Example 211, (1R,2R)-2-((6-((5-(1H-pyrazol-3-yl)-1H-benzo[d]imidazol-1-yl)methyl)benzo[d]thiazol-2-yl)amino)cyclohexanol] | ≤ 50 | C (C>0.02) | ≤ 5 |  |  | 
6 | O[C@@H]1CCCC[C@H]1Nc1nc2ccc(Cn3cnc4cc(C(F)(F)F)cnc43)cc2s1 [Example 212, (1R,2R)-2-((6-((6-(trifluoromethyl)-3H-imidazo[4,5-b]pyridin-3-yl)methyl)benzo[d]thiazol-2-yl)amino)cyclohexanol] | 50 to 400 | A (A≤0.01) | 5 to 20 |  |  | 
7 | O[C@@H]1CCCC[C@H]1Nc1nc2ccc(Cc3cnc4cc(-n5ccnc5)ccn34)cc2s1 [Example 214, (1R,2R)-2-((6-((7-(1H-imidazol-1-yl)imidazo[1,2-a]pyridin-3-yl)methyl)benzo[d]thiazol-2-yl)amino)cyclohexanol] | 50 to 400 | B (0.01<B≤0.02) | ≤ 5 |  |  | 
8 | O[C@@H]1CCCC[C@H]1Nc1nc2ccc(Cc3cnc4cc(-n5nccn5)ccn34)cc2s1 [Example 215, (1R,2R)-2-((6-((7-(2H-1,2,3-triazol-2-yl)imidazo[1,2-a]pyridin-3-yl)methyl)benzo[d]thiazol-2-yl)amino)cyclohexanol] | 50 to 400 | A (A≤0.01) | 5 to 20 |  |  | 
9 | C=Cc1ccn2c(Cc3ccc4nc(N[C@@H]5CCCC[C@H]5O)sc4c3)cnc2c1 [Example 216, (1R,2R)-2-((6-((7-vinylimidazo[1,2-a]pyridin-3-yl)methyl)benzo[d]thiazol-2-yl)amino)cyclohexanol] | 50 to 400 | A (A≤0.01) | 5 to 20 |  |  | 
10 | C=CCOc1ccn2c(Cc3ccc4nc(N[C@@H]5CCCC[C@H]5O)sc4c3)cnc2c1 [Example 217, (1R,2R)-2-((6-((7-(allyloxy)imidazo[1,2-a]pyridin-3-yl)methyl)benzo[d]thiazol-2-yl)amino)cyclohexanol] | 50 to 400 | A (A≤0.01) | 5 to 20 |  |  | 
11 | O[C@@H]1CCCC[C@H]1Nc1nc2ccc(Cc3cnc4cc(-n5ccnn5)ccn34)cc2s1 [Example 218, (1R,2R)-2-((6-((7-(1H-1,2,3-triazol-1-yl)imidazo[1,2-a]pyridin-3-yl)methyl)benzo[d]thiazol-2-yl)amino)cyclohexanol] | 50 to 400 | A (A≤0.01) | 5 to 20 |  |  | 
12 | Fc1cnc2c(c1)ncn2Cc1ccc2nc(N[C@@H]3CCCC[C@@H]3Cl)sc2c1 [Example 219, N-((1R,2S)-2-chlorocyclohexyl)-6-((6-fluoro-3H-imidazo[4,5-b]pyridin-3-yl)methyl)benzo[d]thiazol-2-amine] | 400 to 1500 | B (0.01<B≤0.02) | 5 to 20 |  |  | 
13 | Nc1nccn(Cc2ccc3nc(N[C@@H]4CCCC[C@H]4O)sc3c2)c1=O [Example 220, 3-amino-1-((2-(((1R,2R)-2-hydroxycyclohexyl)amino)benzo[d]thiazol-6-yl)methyl)pyrazin-2(1H)-one acetate salt] | > 1500 | A (A≤0.01) | 20 to 50 |  |  | 
14 | either (1R,2R)-1-((6-((4-(1-methyl-1H-pyrazol-4-yl)-1H-imidazol-1-yl)methyl)benzo[d]thiazol-2-yl)amino)-2,3-dihydro-1H-inden-2-ol or (1R,2R)-1-((6-((5-(1-methyl-1H-pyrazol-4-yl)-1H-imidazol-1-yl)methyl)benzo[d]thiazol-2-yl)amino)-2,3-dihydro-1H-inden-2-ol [Example 83] |  |  |  | 50 to 400 | A (A≤0.01) | ≤ 5
15 | either (1R,2R)-2-((6-((3H-imidazo[4,5-b]pyridin-3-yl)methyl)benzo[d]thiazol-2-yl)amino)-1-methylcyclohexanol or (1S,2R)-2-((6-((3H-imidazo[4,5-b]pyridin-3-yl)methyl)benzo[d]thiazol-2-yl)amino)-1-methylcyclohexanol [Example 60] |  |  |  | 50 to 400 | B (0.01<B≤0.02) | 5 to 20
16 | either (1S,2R)-2-((6-((3H-imidazo[4,5-b]pyridin-3-yl)methyl)benzo[d]thiazol-2-yl)amino)-1-methylcyclohexanol or (1R,2R)-2-((6-((3H-imidazo[4,5-b]pyridin-3-yl)methyl)benzo[d]thiazol-2-yl)amino)-1-methylcyclohexanol [Example 59] |  |  |  | 50 to 400 | C (C>0.02) | 5 to 20
